Source: US9018255B2, “Esters of (acyloxymethyl)acrylamide, a pharmaceutical composition containing them, and their use as inhibitors of the thioredoxin—thioredoxin reductase system” (Instytut Chemii Organicznej Polskiej Akademii Nauk, priority 2010, dated 2015)
“Also recorded” adds a separate entry of the source. Where two headings read alike, the source gives them in different places.

Legend:
[1] = target: human recombinant thioredoxin (Homo sapiens (Human), UniProt P10599); assay: Thioredoxin activity, insulin reduction / DTNB assay with recombinant enzymes; type: biochemical; conditions: for IC50: 37° C., 30 min, 0.25 μM thioredoxin, 0.325 μM thioredoxin reductase, read-out: IC50 of thioredoxin inhibition; for thioredoxin activity inhibition in comparison to PX-12: in words
Procedure: The method of determining thioredoxin activity is based on the reduction of insulin by thioredoxin. Thioredoxin is reconstituted is by thioredoxin reductase, with NADPH. The resulting free thiol —SH groups react with 5,5′-dithiobis-2-nitrobenzoic acid (DTNB). The termination of the reaction results in the formation of a […] colour. The intensity of colouration is determined spectrophotometrically at 412 nm and this corresponds to the number of reduced sulfahydryl groups. The reaction was performed at 37° C. over 30 min. in a buffer containing 50 mM Tris-HCl and 20 mM EDTA at a pH of 7.6. The substrate concentrations used were: 0.25 μM human recombinant thioredoxin and 0.325 μM rat recombinant thioredoxin reductase (IMCO Corporation Ltd AB, Sweden) and 316 μM of insulin, 0.8 μM NADPH, 8 mM DTNB (Sigma Aldrich).

[2] = tested on: panel of human and murine lines of tumour cells; assay: Cytostatic/cytotoxic activity against panel of tumour cell lines (FIG. 1); type: cell-based; conditions: in words
Procedure: The cytostatic/cytotoxic activity against adherent cells, from solid tumours cells (EMT6, PAN02, CT26 and T24) was evaluated using the crystalline violet test, whereas against suspension-grown cells of the MTT line. b.d.=no data.
(§1) The cytostatic/cytotoxic activity was evaluated using the following lines of tumour cells: EMT6 (murine breast cancer), PANC02 (murine pancreatic cancer), B78 (murine melanoma), C-26 (murine colon cancer), K562 (human chronic myelogenic leukaemia), T24 (human bladder cancer), RAJI (human Burkitt's lymphoma), Ramos (human Burkitt's lymphoma). The cultures were maintained in the following media: DMEM (EMT6, PANC02, B78), RPMI (C-26, Raji, Ramos), IMDM (K562), McCoy's (T24) with an addition of 10% bovine serum (Invitrogen) and antibiotics (Sigma).
(§2) To determine cytostatic/cytotoxic activity of the evaluated compounds, cell cultures were initiated in 96-well plates. After 24 h, inhibitors were added at set concentrations. The results were determined using colorimetric methods following 72 hours of incubation. To determine cytostatic/cytotoxic activity, crystal violet dyeing was used (reading at 595 nm) or MTT (Sigma; reading at 570 nm).

[3] = target: rat recombinant thioredoxin reductase (Rattus norvegicus (Rat), UniProt O89049); assay: Thioredoxin reductase activity, DTNB chromogenic assay (Thioredoxin Reductase Assay Kit); type: biochemical; conditions: for IC50: read-out: IC50 of thioredoxin reductase activity inhibition
Procedure: Reactions in which the activity of recombinant rat thioredoxin reductase was determined made use of a chromogenic reaction with 5,5′-dithiobis-2-nitrobenzoic acid.

[4] = target: T1, glutathione reductase (Homo sapiens (Human), UniProt P00390); assay: Glutathione reductase activity, DTNB chromogenic assay (Glutathione Reductase Assay Kit); type: biochemical; conditions: for IC50: read-out: IC50 of glutathione reductase activity inhibition; for inhibition of glutathione reductase activity: even at a concentration of 100 μM
Procedure: The spatial structures of the active centres of glutathione reductase and the enzymes of the Trx-TrxR system show a high similarity. […] The reactions for determining the activity of recombinant human glutathione reductase made use of a chromogenic reaction with 5,5′-dithiobis-2-nitrobenzoic acid, like in the case of thioredoxin reductase. Activity was determined after 5 and 10 min incubation at room temperature.

[5] = tested on: EMT6 (murine breast cancer); assay: Cytostatic/cytotoxic activity, EMT6; type: cell-based; conditions: for LD50 of the evaluated compound: EMT6, after 72 h of incubation
Procedure: as §1
To determine cytostatic/cytotoxic activity of the evaluated compounds, cell cultures were initiated in 96-well plates. After 24 h, inhibitors were added at set concentrations. The results were determined using colorimetric methods following 72 hours of incubation.

[6] = tested on: PANC02 (murine pancreatic cancer); assay: Cytostatic/cytotoxic activity, PANC02; type: cell-based; conditions: PANC02, after 72 h of incubation
Procedure: as §1, §2

[7] = tested on: C-26 (murine colon cancer); assay: Cytostatic/cytotoxic activity, C-26; type: cell-based; conditions: C-26, after 72 h of incubation
Procedure: as §1, §2

[8] = tested on: B78 (murine melanoma); assay: Cytostatic/cytotoxic activity, B78; type: cell-based; conditions: B78, after 72 h of incubation
Procedure: as §1, §2

[9] = tested on: RAJI (human Burkitt's lymphoma); assay: Cytostatic/cytotoxic activity, RAJI; type: cell-based; conditions: after 72 h of incubation
Procedure: as §1, §2

[10] = tested on: Ramos (human Burkitt's lymphoma); assay: Cytostatic/cytotoxic activity, Ramos; type: cell-based; conditions: after 72 h of incubation
Procedure: as §1, §2

[11] = tested on: K562 (human chronic myelogenic leukaemia); assay: Cytostatic/cytotoxic activity, K562; type: cell-based; conditions: K562, after 72 h of incubation
Procedure: as §1, §2

[12] = tested on: T24 (human bladder cancer); assay: Cytostatic/cytotoxic activity, T24; type: cell-based; conditions: T24, after 72 h of incubation
Procedure: as §1, §2

[13] = tested on: T24 cells; assay: Cell cycle analysis by flow cytometry (propidium iodide); type: cell-based, human; conditions: T24, 72 hours of incubation
From the text: The cell cycle is composed of a series of events leading to cell division. In the cell cycle we differentiate the following phases: G1 (interval between divisions), S (duplication of genetic material) and G2/M (division or mitosis). An analysis of the cel cycle using a flow-through cytometer makes it possible to determine the percentage of cells in each of the phases. Furthermore, the percentage of cells in the so-called subG1 phase: those, whose genetic material has degraded as a result of apoptosis or necrosis.
The cells were stained with propidium iodide at […] and analysed with flow-through cytometry. The percentage of dividing cells duplicating their genetic material (S phase) is clearly lower after incubation with inhibitors of thioredoxin.

[14] = target: thioredoxin reductase (Homo sapiens (Human), UniProt Q16881); conditions: literature (Gromer et al. 1998); cited from earlier work
[15] = target: T1, glutathione reductase; conditions: literature (Gromer et al. 1998); cited from earlier work

T1 sequence (P00390 44-522): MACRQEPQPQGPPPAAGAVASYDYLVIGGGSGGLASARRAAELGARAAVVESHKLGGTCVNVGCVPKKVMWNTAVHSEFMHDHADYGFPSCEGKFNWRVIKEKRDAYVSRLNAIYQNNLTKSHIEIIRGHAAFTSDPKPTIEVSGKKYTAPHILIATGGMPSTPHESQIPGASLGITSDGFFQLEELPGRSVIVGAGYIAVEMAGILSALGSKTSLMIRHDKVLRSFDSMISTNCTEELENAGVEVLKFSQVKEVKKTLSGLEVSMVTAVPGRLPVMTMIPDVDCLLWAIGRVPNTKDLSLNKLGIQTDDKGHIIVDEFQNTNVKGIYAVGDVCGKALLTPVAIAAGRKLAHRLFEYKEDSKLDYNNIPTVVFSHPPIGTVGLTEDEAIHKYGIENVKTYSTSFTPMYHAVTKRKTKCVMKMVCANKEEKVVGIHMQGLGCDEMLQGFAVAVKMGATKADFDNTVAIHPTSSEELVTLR
Sequence of human recombinant thioredoxin (P10599 whole entry): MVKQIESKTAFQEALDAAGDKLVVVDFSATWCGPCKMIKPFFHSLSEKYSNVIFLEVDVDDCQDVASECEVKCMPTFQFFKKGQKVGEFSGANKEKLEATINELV
Sequence of rat recombinant thioredoxin reductase (O89049 whole entry): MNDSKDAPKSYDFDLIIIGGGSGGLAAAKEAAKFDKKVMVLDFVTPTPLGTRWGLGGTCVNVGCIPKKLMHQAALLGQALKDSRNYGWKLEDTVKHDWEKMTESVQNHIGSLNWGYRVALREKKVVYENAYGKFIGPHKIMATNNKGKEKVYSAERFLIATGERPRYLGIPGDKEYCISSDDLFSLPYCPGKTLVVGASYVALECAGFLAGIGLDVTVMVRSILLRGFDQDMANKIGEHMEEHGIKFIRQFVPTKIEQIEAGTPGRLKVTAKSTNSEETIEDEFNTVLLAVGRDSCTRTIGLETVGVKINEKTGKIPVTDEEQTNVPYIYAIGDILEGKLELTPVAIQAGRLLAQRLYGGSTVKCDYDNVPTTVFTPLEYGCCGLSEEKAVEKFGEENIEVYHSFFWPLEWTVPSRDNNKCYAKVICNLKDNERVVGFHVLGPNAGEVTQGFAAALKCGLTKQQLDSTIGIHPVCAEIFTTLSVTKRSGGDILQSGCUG
Sequence of thioredoxin reductase (Q16881 151-649): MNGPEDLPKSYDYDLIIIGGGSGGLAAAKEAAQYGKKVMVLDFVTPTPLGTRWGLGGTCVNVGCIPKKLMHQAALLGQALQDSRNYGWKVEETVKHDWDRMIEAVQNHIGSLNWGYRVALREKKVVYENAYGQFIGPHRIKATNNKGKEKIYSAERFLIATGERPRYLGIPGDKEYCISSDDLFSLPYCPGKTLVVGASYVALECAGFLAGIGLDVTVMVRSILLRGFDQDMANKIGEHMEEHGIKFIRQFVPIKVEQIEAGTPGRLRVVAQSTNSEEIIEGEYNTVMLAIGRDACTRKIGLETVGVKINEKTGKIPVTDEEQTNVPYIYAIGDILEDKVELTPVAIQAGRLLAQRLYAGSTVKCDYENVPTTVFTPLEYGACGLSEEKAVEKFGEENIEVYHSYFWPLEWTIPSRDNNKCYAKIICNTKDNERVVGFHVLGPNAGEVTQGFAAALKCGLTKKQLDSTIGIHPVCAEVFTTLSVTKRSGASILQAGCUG

C=C(COC(=O)c1c(Cl)cccc1Cl)C(=O)NC(CC(C)C)C(=O)NCC(=O)OCC (racemic) [Compound 3b, 2-((1-((2-ethoxy-2-oxoethyl)amino)-4-methyl-1-oxopentan-2-yl)carbamoyl)allyl 2,6-dichlorobenzoate]
IC50 [1]: 2.9 µM | thioredoxin activity inhibition in comparison to PX-12 [1]: concentrations smaller than compound PX-12 | thioredoxin IC50, times lower than for PX-12 ([1]; ratio to PX-12): about 5 times | cytostatic/cytotoxic activity [2]: strong cytostatic/cytotoxic activity

C=C(COC(=O)c1c(C(F)(F)F)cccc1C(F)(F)F)C(=O)NCc1ccccc1 [Compound 8a, 2-(benzylcarbamoyl)allyl 2,6-bis(trifluoromethyl)benzoate]
IC50 ([3]; 5 min from reaction onset): > 40 µM | IC50 ([3]; 15 min from reaction onset): > 40 µM | IC50 ([4]; 5 min from reaction onset): > 100 µM | IC50 ([4]; 10 min from reaction onset): > 100 µM | cytostatic/cytotoxic activity [2]: strong cytostatic/cytotoxic activity

C=C(COC(=O)c1c(Cl)cccc1Cl)C(=O)NCc1ccccc1 [Compound 8b, 2-(benzylcarbamoyl)allyl 2,6-dichlorobenzoate]
IC50 [1]: 5.9 µM | selectivity as thioredoxin inhibitor in comparison to PX-12 ([1]; from Tables 1, 2 and 3): considerably more selective | thioredoxin activity inhibition in comparison to PX-12 [1]: concentrations smaller than compound PX-12 | IC50 ([3]; 5 min from reaction onset): > 40 µM | IC50 ([3]; 15 min from reaction onset): > 40 µM | IC50 ([4]; 5 min from reaction onset): > 100 µM | IC50 ([4]; 10 min from reaction onset): > 100 µM | inhibition of glutathione reductase activity [4]: None | cytostatic/cytotoxic activity [2]: strong cytostatic/cytotoxic activity

CCC(C)SSc1ncc[nH]1 (stereo not drawn) [PX-12, 1-methylpropyl-2-imidazole disulphide, reference compound]
IC50 ([4]; 5 min from reaction onset): 19.8 µM | IC50 ([4]; 10 min from reaction onset): 28.6 µM | LD50 of the evaluated compound [5]: 12.7 µM | LD50 of the evaluated compound [6]: 3.8 µM | LD50 of the evaluated compound [7]: 5.4 µM | LD50 of the evaluated compound [8]: 5.3 µM | LD50 of the evaluated compound [9]: 5.9 µM | LD50 of the evaluated compound [10]: 3.7 µM | LD50 of the evaluated compound [11]: 4.9 µM | LD50 of the evaluated compound [12]: 4.5 µM | percentage of dividing cells duplicating their genetic material (S phase) [13]: clearly lower

CC[P](CC)(CC)=[Au][S]C1OC(OC(C)=O)C(OC(C)=O)C(OC(C)=O)C1OC(C)=O (stereo not drawn) [auranofin]
concentrations inhibiting thioredoxin reductase [14]: nanomolar concentrations | concentrations inhibiting glutathione reductase [15]: micromolar levels

C=C(COC(=O)c1c(C(F)(F)F)cccc1C(F)(F)F)C(=O)N[C@@H](CC(C)C)C(=O)NCC(=O)OCC [Compound L-3a, (S)-2-((1-((2-ethoxy-2-oxoethyl)amino)-4-methyl-1-oxopentan-2-yl)carbamoilo)allyl 2,6-bis(trifluoromethyl)benzoate]
thioredoxin activity inhibition in comparison to PX-12 [1]: concentrations smaller than compound PX-12 | cytostatic/cytotoxic activity [2]: strong cytostatic/cytotoxic activity

C=C(COC(=O)c1c(C(F)(F)F)cccc1C(F)(F)F)C(=O)NC(CC(C)C)C(=O)NCC(=O)OCC (racemic) [Compound 3a, 2-((1-((2-ethoxy-2-oxoethyl)amino)-4-methyl-1-oxopentan-2-yl)carbamoyl)allyl 2,6-bis(trifluoromethyl)benzoate]
thioredoxin activity inhibition in comparison to PX-12 [1]: concentrations smaller than compound PX-12; also recorded: three times stronger | IC50 ([3]; 5 min from reaction onset): 37.1 µM | IC50 ([3]; 15 min from reaction onset): > 40 µM | inhibition of thioredoxin reductase activity ([3]; in words): slightly inhibited | thioredoxin reductase activity inhibition in comparison to PX-12 ([3]; in words): about three times less; also recorded: IC50 nearly three times higher | IC50 ([4]; 5 min from reaction onset): > 100 µM | IC50 ([4]; 10 min from reaction onset): > 100 µM | inhibition of glutathione reductase activity [4]: None | cytostatic/cytotoxic activity in comparison to PX-12 ([5]; EMT6): over two times more active | LD50 of the evaluated compound [5]: 5.3 µM | LD50 of the evaluated compound [6]: 3.2 µM | LD50 of the evaluated compound [7]: 3.2 µM | LD50 of the evaluated compound [8]: 4.3 µM | LD50 of the evaluated compound [9]: 4.6 µM | LD50 of the evaluated compound [10]: 3.3 µM | LD50 of the evaluated compound [11]: 3.8 µM | LD50 of the evaluated compound [12]: 5.1 µM | percentage of dividing cells duplicating their genetic material (S phase) [13]: clearly lower | cytostatic/cytotoxic activity [2]: comparable

C=C(COC(=O)c1c(C(F)(F)F)cccc1C(F)(F)F)C(=O)N[C@H](CC(C)C)C(=O)NCC(=O)OCC [Compound D-3a, (R)-2-((1-((2-ethoxy-2-oxoethyl)amino)-4-methyl-1-oxopentan-2-yl)carbamoyl)allyl 2,6-bis(trifluoromethyl)benzoate]
thioredoxin activity inhibition in comparison to PX-12 [1]: concentrations smaller than compound PX-12 | cytostatic/cytotoxic activity [2]: strong cytostatic/cytotoxic activity
